What was measured:
Human Thrombin = Human Thrombin (Homo sapiens, UniProt P00734); assay: Inhibition of amidase activity of thrombin (Kass); format: biochemical; details: apparent association constant, mean over a range of concentrations
Experimental: (§1) The assay is carried out by mixing 50 μL buffer (0.03M Tris, 0.15M NaCl, pH 7.4) with 25 μL of bovine thrombin or human thrombin solution (0.21 mg/mL of thrombostat bovine thrombin, Parke-Davis, or purified human thrombin, Enzyme Research Laboratories, South Bend, Ind., at about 8 NIH units/mL, in the same buffer) and 25 μL of test compound in a solvent (in 50% aqueous methanol, v:v). The 150 μL of an aqueous solution of the chromogenic substrate (at 0.25 mg/mL) are added and the rates of hydrolysis of the substrate are measured by monitoring the reactions at 405 nm for the release of p-nitroaniline. Standard curves are constructed by plotting free thrombin concentration against hydrolysis rate. The hydrolysis rates observed with test compounds are then converted to "free thrombin" values in the respective assays by use of the standard curves. The bound thrombin (bound to test compound) is calculated by subtracting the amount of free thrombin observed in each assay from the known initial amount of thrombin used in the assay. The amount of free inhibitor in each assay is calculated by subtracting the number of moles of bound thrombin from the number of moles of added inhibitor (test compound).
The Kass value is the hypothetical equilibrium constant for the reaction between thrombin and the test compound (I). [drawing 54]
(§2) Kass is calculated for a range of concentrations of test compounds and the mean value is reported in units of liter per mole.

factor Xa = biological target: T1, factor Xa (Homo sapiens, UniProt P00742); assay: Serine protease selectivity, chromogenic substrate (Kass), factor Xa; format: biochemical; details: substrate N-Benzoyl-Ile-Glu-Gly-Arg-p-nitroanilide
T1 construct: Human factors X, Xa, IXa, XIa, and XIIa are purchased; purchased Enzyme Research Laboratories, South Bend, Ind
Experimental: as §1, §2
(§3) By substantially following the procedures described above for human thrombin, and using other human blood coagulation system serine proteases and proteases of the fibrinolytic system with the appropriate chromogenic substrates, identified below, selectivity of the compounds of the present invention with respect to the coagulation factor serine proteases and with respect to the fibrinolytic system serine proteases are evaluated as well as their substantial lack of interference with serine proteases of the fibrinolytic system. Thrombin inhibitors preferably should spare fibrinolysis induced by urokinase, tissue plasminogen activator (t-PA) and streptokinase. This would be important to the therapeutic use of such agents as an adjunct to streptokinase, t-PA or urokinase thrombolytic therapy and to the use of such agents as an endogenous fibrinolysis-sparing (with respect to t-PA and urokinase) antithrombotic agent. In addition to the lack of interference with the amidase activity of the fibrinolytic proteases, such fibrinolytic system sparing can be studied by the use of human plasma clots and their lysis by the respective fibrinolytic plasminogen activators.
(§4) Human factors X, Xa, IXa, XIa, and XIIa are purchased from Enzyme Research Laboratories, South Bend, Ind.; human urokinase from Leo Pharmaceuticals, Denmark; and recombinant activated Protein C (aPC) is prepared at Eli Lilly and Co. substantially according to U.S. Pat. No. 4,981,952. Chromogenic substrates: N-Benzoyl-Ile-Glu-Gly-Arg-p-nitroanilide (for factor Xa); N-Cbz-D-Arg-Gly-Arg-p-nitroanilide (for factor IXa assay as the factor Xa substrate); Pyroglutamyl-Pro-Arg-p-nitroanilide (for Factor XIa and for aPC); H-D-Pro-Phe-Arg-p-nitroanilide (for factor XIIa); and Pyroglutamyl-Gly-Arg-p-nitroanilide (for urokinase); are purchased from KabiVitrum, Stockholm, Sweden, or from Midwest Biotech, Fishers, Ind. Bovine trypsin is purchased from Worthington Biochemicals, Freehold, N.J., and human plasma kallikrein from Kabi Vitrum, Stockholm, Sweden. Chromogenic substrate H-D-Pro-Phe-Arg-p-nitroanilide for plasma kallikrein is purchased from Kabi Vitrum, Stockholm, Sweden. N-Benzoyl-Phe-Val-Arg-p-nitroanilide, the substrate for human thrombin and for trypsin, is synthesized according to procedures described above for the compounds of the present invention, using known methods of peptide coupling from commercially available reactants or purchased from Midwest Biotech, Fishers, Ind.

Trypsin = biological target: T2, Trypsin (Bos taurus, UniProt P00760); assay: Serine protease selectivity, chromogenic substrate (Kass), trypsin; format: biochemical, bovine; details: substrate N-Benzoyl-Phe-Val-Arg-p-nitroanilide
T2 construct: Bovine trypsin is purchased; purchased Worthington Biochemicals, Freehold, N.J
T2 sequence (P00760 24-246): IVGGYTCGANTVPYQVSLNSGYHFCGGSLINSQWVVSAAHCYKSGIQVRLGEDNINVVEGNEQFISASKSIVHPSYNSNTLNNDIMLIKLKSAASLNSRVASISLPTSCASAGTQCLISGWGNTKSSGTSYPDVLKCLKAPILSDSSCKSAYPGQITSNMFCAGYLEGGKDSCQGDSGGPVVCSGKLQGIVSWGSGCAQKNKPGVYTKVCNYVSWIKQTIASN
Experimental: as §1, §2, §3, §4

Plasmin = biological target: T3, Plasmin (Homo sapiens, UniProt P00747); assay: Serine protease selectivity, chromogenic substrate (Kass), plasmin; format: biochemical; details: substrate H-D-Val-Leu-Lys-p-nitroanilide
T3 construct: Human plasmin is purchased; purchased Boehringer Mannheim, Indianapolis, Ind
Experimental: as §1, §2, §3
(§5) Human plasmin is purchased from Boehringer Mannheim, Indianapolis, Ind.; nt-PA is purchased as single chain activity reference from American Diagnostica, Greenwich, Conn.; modified-t-PA6 (mt-PA6) is prepared at Eli Lilly and Company by procedure known in the art (See, Burck, et al., J. Biol. Chem., 265, […] (1990). Plasmin chromogenic substrate H-D-Val-Leu-Lys-p-nitroanilide and tissue plasminogen activator (t-PA) substrate H-D-Ile-Pro-Arg-p-nitroanilide are purchased from Kabi Vitrum, Stockholm, Sweden.

t-PA = biological target: T4, t-PA (Homo sapiens, UniProt P00750); assay: Serine protease selectivity, chromogenic substrate (Kass), t-PA; format: biochemical; details: substrate H-D-Ile-Pro-Arg-p-nitroanilide
T4 construct: purchased American Diagnostica, Greenwich, Conn
Experimental: as §1, §2, §3, §5

Human plasma [1] = assay: Human plasma anticoagulation, thrombin time (TT); format: biochemical; details: concentration required to double the thrombin time, linear extrapolation
Experimental: (§6) Dog plasma and rat plasma is obtained from conscious mixed-breed hounds (either sex, Hazelton-LRE, Kalamazoo, Mich., U.S.A.) or from anesthetized male Sprague-Dawley rats (Harlan Sprague-Dawley, Inc., Indianapolis, Ind., U.S.A.) by venipuncture into 3.8 percent citrate. Fibrinogen is prepared from in-date ACD human blood as the fraction I-2 according to previous procedures and specifications. Smith, Biochem. J., 185, 1-11 (1980); and Smith, et al., Biochemistry, 11, 2958-2967 (1972). Human fibrinogen is also purchased as 98 percent pure/plasmin free from American Diagnostica, Greenwich, Conn. Coagulation reagents ACTIN, Thromboplastin, and Human plasma are from Baxter Healthcare Corp., Dade Division, Miami, Fla. Bovine thrombin from Parke-Davis ([…], Mich.) is used for coagulation assays in plasma.
(§7) Coagulation assay procedures are as previously described. Smith, et al., Thrombosis Research, 50, 163-174 (1988). A CoAScreener coagulation instrument (American LABor, Inc.) is used for all coagulation assay measurements. The prothrombin time (PT) is measured by adding 0.05 mL saline and 0.05 mL Thromboplastin-C reagent to 0.05 mL test plasma. The activated partial thromboplastin time (APTT) is measured by incubation of 0.05 mL test plasma with 0.05 mL Actin reagent for 120 seconds followed by 0.05 mL CaCl2 (0.02M). The thrombin time (TT) is measured by adding 0.05 mL saline and 0.05 mL thrombin (10 NIH units/mL) to 0.05 mL test plasma. The compounds of formula I are added to human or animal plasma over a wide range of concentrations to determine prolongation effects on the APTT, PT, and TT assays. Linear extrapolations are performed to estimate the concentrations required to double the clotting time for each assay.

Human plasma [2] = assay: Human plasma anticoagulation, activated partial thromboplastin time (APTT); format: biochemical; details: concentration required to double the APTT, linear extrapolation
Experimental: as §6, §7

Human plasma [3] = assay: Human plasma anticoagulation, prothrombin time (PT); format: biochemical; details: concentration required to double the PT, linear extrapolation
Experimental: as §6, §7

T4 sequence (P00750 36-562): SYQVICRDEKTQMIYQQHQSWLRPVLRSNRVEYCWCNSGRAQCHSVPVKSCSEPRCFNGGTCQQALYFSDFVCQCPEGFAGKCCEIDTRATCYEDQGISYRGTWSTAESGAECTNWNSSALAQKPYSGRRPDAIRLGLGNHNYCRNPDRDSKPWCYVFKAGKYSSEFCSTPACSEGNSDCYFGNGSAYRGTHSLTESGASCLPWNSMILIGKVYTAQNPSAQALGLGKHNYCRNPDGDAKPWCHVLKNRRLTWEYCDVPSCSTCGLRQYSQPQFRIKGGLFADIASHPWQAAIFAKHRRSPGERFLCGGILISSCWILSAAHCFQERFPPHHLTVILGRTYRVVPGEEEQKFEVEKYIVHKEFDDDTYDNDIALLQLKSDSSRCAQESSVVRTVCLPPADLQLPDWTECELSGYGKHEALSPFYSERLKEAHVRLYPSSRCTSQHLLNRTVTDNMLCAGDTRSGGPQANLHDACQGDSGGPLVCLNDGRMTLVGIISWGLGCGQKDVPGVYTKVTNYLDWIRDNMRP
T1 sequence (P00742 235-488 limits assumed): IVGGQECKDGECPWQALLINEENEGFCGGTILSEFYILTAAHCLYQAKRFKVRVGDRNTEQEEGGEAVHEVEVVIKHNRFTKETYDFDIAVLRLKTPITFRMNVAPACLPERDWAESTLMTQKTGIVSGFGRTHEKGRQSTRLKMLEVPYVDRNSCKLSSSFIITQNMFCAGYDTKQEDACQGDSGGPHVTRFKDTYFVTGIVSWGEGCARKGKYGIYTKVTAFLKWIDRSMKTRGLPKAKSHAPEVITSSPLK
T1 sequence (P00742 41-179 partner limits assumed): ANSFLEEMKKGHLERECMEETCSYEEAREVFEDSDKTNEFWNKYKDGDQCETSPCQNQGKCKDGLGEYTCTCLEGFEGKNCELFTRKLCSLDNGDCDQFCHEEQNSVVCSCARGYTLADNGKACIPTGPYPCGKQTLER
T3 sequence (P00747 581-810 limits assumed): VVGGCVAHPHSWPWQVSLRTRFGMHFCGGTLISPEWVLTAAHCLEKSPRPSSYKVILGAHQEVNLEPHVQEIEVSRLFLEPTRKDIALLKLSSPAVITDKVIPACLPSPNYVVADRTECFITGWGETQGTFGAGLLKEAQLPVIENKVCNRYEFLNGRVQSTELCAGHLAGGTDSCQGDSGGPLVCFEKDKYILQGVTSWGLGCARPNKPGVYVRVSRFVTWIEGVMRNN
T3 sequence (P00747 97-580 partner limits assumed): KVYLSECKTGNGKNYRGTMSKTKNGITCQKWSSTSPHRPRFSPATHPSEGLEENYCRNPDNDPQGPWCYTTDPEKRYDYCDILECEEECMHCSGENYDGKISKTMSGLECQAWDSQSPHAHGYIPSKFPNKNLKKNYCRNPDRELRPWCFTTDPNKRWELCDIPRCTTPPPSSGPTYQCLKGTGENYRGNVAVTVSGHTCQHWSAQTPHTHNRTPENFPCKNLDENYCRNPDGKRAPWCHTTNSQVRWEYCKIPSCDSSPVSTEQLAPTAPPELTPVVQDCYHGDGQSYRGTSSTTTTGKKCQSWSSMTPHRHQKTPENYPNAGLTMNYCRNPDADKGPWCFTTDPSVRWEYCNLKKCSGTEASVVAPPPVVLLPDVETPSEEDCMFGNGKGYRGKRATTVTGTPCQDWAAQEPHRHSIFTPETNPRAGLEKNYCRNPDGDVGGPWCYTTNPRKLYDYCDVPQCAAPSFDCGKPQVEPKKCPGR

CCS(=O)(=O)N[C@H](Cc1ccccc1)C(=O)N1[C@H](C(=O)N[C@H](C=O)CCCNC(=N)N)C[C@@H]2CCCC[C@@H]21.Cl (relative stereo) [Example 23, EtSO2 -D-Phe-cis-Ohi-ArgH.HCl]
Enzyme Kass, Human Thrombin (Human Thrombin): 957 L/mol × 10^6
Enzyme Kass, Xa (factor Xa): 4,37 L/mol × 10^6
Enzyme Kass, Trypsin (Trypsin): 312 L/mol × 10^6
Enzyme Kass, Plasmin (Plasmin): 28.2 L/mol × 10^6
Enzyme Kass, t-PA (t-PA): 2.07 L/mol × 10^6
2x Clotting time, TT (Human plasma [1]): 19 ng/mL
2x Clotting time, APTT (Human plasma [2]): 312 ng/mL
2x Clotting time, PT (Human plasma [3]): 746 ng/mL
